Measurements from PubChem BioAssay (NCI).
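Cultured in 96-well plates, cells were exposed to test compound for 48 hours across five concentrations. The concentration for 50% growth inhibition is given as GI50. At the TGI there is no net growth.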

Experiments:
Test in all cases: NCI-60 cell line screen, 48 h
UACC-62 melanoma = tested on: UACC-62 melanoma
M14 melanoma = tested on: M14 melanoma
HCC-2998 colon = tested on: HCC-2998 colon
LOX IMVI melanoma = tested on: LOX IMVI melanoma
OVCAR-3 ovarian = tested on: OVCAR-3 ovarian
UO-31 renal = tested on: UO-31 renal
HCT-116 colon = tested on: HCT-116 colon
HT29 colon = tested on: HT29 colon
SK-MEL-28 melanoma = tested on: SK-MEL-28 melanoma
BT-549 breast = tested on: BT-549 breast

Structure (SMILES) | TGI (UACC-62 melanoma) | TGI (M14 melanoma) | TGI (HCC-2998 colon) | TGI (LOX IMVI melanoma) | TGI (OVCAR-3 ovarian) | TGI (UO-31 renal) | TGI (HCT-116 colon) | TGI (HT29 colon) | TGI (SK-MEL-28 melanoma) | GI50 (BT-549 breast) | TGI (BT-549 breast) | GI50 (UACC-62 melanoma) | GI50 (M14 melanoma) | GI50 (HCC-2998 colon) | GI50 (LOX IMVI melanoma) | GI50 (OVCAR-3 ovarian) | GI50 (UO-31 renal) | GI50 (HCT-116 colon) | GI50 (SK-MEL-28 melanoma) | GI50 (HT29 colon)
O=C1C(Cl)=C(Cl)C(=O)N1c1ccccc1Cl | > 100 µM | > 100 µM | > 100 µM | > 100 µM | > 100 µM | > 100 µM | > 100 µM | > 100 µM | > 100 µM |  |  |  |  |  |  |  |  |  |  | 
Cn1nc(-c2ccccc2)c2c(/C=C/c3ccc(Cl)cc3)onc2c1=O | > 100 µM | > 100 µM |  | 95.4 µM |  | 71.4 µM | 28.4 µM | > 100 µM | > 100 µM |  |  |  |  |  |  |  |  |  |  | 
Cc1ccccc1C=NC12CC3CC(CC(C3)C1)C2 | > 100 µM | > 100 µM | > 100 µM | > 100 µM | > 100 µM | > 100 µM | > 100 µM | > 100 µM | > 100 µM |  |  |  |  |  |  |  |  |  |  | 
O=C(Nc1ccccc1)n1cc(-c2ccccn2)c(N2CCOCC2)n1 | > 100 µM | > 100 µM | > 100 µM | > 100 µM | 29.5 µM | 92.8 µM | > 100 µM | 19.1 µM |  |  |  |  |  |  |  |  |  |  |  | 
CCC(C)C(=O)O[C@H]1C(=O)O[C@@H]2C[C@H]3C(C)=CC(=O)[C@@H](O)[C@]3(C)[C@H]3[C@@H](O)[C@H](O)[C@@]4(C)OC[C@]32[C@@H]14 (stereo partly specified) | < 0.0434 µM | < 0.0216 µM | < 0.024 µM | < 0.0246 µM | 0.0906 µM | 0.0859 µM | < 0.01 µM | 0.0272 µM | 0.542 µM |  |  |  |  |  |  |  |  |  |  | 
COC(=O)C(=O)C(C#N)c1cccc(Cl)c1 (stereo unspecified) | > 100 µM | > 100 µM | > 100 µM | > 100 µM | > 100 µM | > 100 µM | > 100 µM | > 100 µM | > 100 µM |  |  |  |  |  |  |  |  |  |  | 
CC(=O)OC1CC2C(C)(C)CCC[C@]2(C)C2=C1C(O)=C(C(C)C)C(=O)C2=O (stereo partly specified) | 1.42 µM | 1.83 µM | 0.546 µM | 2.95 µM | 4.53 µM | 2.06 µM | 1.99 µM |  | 2.16 µM | 1.16 µM | 3.34 µM | 0.323 µM | 0.442 µM | 0.228 µM | 1.15 µM | 1.52 µM | 0.638 µM | 0.499 µM | 0.68 µM | 
N#CC(C(=O)CCC(=O)Nc1ccc(Cl)cc1)c1ccc(Cl)cc1 (stereo unspecified) | > 100 µM | > 100 µM | > 100 µM | > 100 µM | > 100 µM | > 100 µM | > 100 µM | > 100 µM |  |  |  |  |  |  |  |  |  |  |  | 
Cc1ccc(C(=O)C(c2nc3n(c2O)C(=N)N=N3)c2nc3n(c2O)C(=N)N=N3)cc1 (stereo unspecified) | > 100 µM | > 100 µM | > 100 µM | > 100 µM | > 100 µM | > 100 µM |  | > 100 µM | > 100 µM |  |  |  |  |  |  |  |  |  |  | 
CCc1cccc(C)c1N1C(=O)C(=O)C(c2nc3ccccc3o2)/C(=N/NC(=S)NN)C1=O (stereo unspecified) | > 100 µM | > 100 µM |  | > 100 µM | > 100 µM | > 100 µM | > 100 µM | > 100 µM | > 100 µM |  |  |  |  |  |  |  |  |  |  | 
COc1ccc(C2=NN(C=O)C(c3ccc(OS(=O)(=O)c4ccc(C)cc4)c(OC)c3)C2)cc1 (stereo unspecified) | > 100 µM | > 100 µM | > 100 µM | > 100 µM | > 100 µM | > 100 µM | > 100 µM |  | > 100 µM | 3.35 µM | 58.1 µM | 3.73 µM | 3.92 µM | > 100 µM | 9.41 µM | 5.6 µM | 3.39 µM | 4.56 µM | 10.6 µM | 
O=C[C@]12CC=C3OC4OC5(CCCCC5)OC4[C@H]3[C@H]1C(=O)C=CC2=O (stereo partly specified) | 52.6 µM | 38.7 µM | 90.8 µM |  |  | 40.8 µM | 38.4 µM | > 100 µM | 96.3 µM |  |  |  |  |  |  |  |  |  |  | 
Cn1cnc([N+](=O)[O-])c1Sc1nc2ccccc2o1 | 25.5 µM | 24.4 µM | 24.9 µM | 26.1 µM | 14.7 µM | 24.8 µM | 11.6 µM | 12.9 µM | 18.6 µM |  |  |  |  |  |  |  |  |  |  | 
N#CC(C#N)=Cc1ccc(C(O)P(=O)(O)O)cc1 (stereo unspecified) | > 100 µM | > 100 µM | > 100 µM | > 100 µM | > 100 µM | > 100 µM | > 100 µM | > 100 µM | > 100 µM |  |  |  |  |  |  |  |  |  |  | 
C=C1C(=O)O[C@@H]2C[C@@H]1CC[C@]1(C)O[C@H]1CC/C(C)=C/CC[C@@]2(C)O | 36.4 µM | 35.3 µM | 23.6 µM | 4.85 µM | 64.1 µM | > 100 µM | 25.8 µM | 31.7 µM |  | 16.9 µM | 39.3 µM | 17.5 µM | 16.8 µM | 10.6 µM | 0.895 µM | 23.1 µM | 29.5 µM | 13.1 µM |  | 15.4 µM
CCCCOC(=O)/C=C\C(=O)NC(N)=O | 30.1 µM | 36.6 µM | 35.4 µM | 32.4 µM | 26.2 µM | 31 µM | 27.8 µM |  | 42.5 µM |  |  | 15.3 µM | 17.2 µM | 19.8 µM | 17.4 µM | 13 µM | 13.4 µM | 13.4 µM | 19.1 µM | 
CN1C(c2ccccc2)CC(C)(O)CC1c1ccccc1 (stereo unspecified) | > 100 µM | > 100 µM | > 100 µM | > 100 µM | > 100 µM | > 100 µM | > 100 µM | > 100 µM | > 100 µM |  |  |  |  |  |  |  |  |  |  | 
O=C(CC(=O)N1N=C(n2ccc3ccccc32)CC1c1ccccc1)Nc1ccc(Cl)cc1 (stereo unspecified) | > 100 µM | > 100 µM | > 100 µM | > 100 µM | > 100 µM | > 100 µM | > 100 µM | > 100 µM | > 100 µM |  |  |  |  |  |  |  |  |  |  | 
CC12CC/C(=N/NC(N)=O)C3C1CCCC32 | > 100 µM | > 100 µM | > 100 µM | > 100 µM | > 100 µM | > 100 µM | > 100 µM | > 100 µM | > 100 µM |  |  |  |  |  |  |  |  |  |  | 
CCOC(=O)NC(=O)c1cn(CCCCCCCCCCC(=O)NCCCN2CCN(CCCNC(=O)CCCCCCCCCCn3cc(C(=O)NC(=O)OCC)c(=O)[nH]c3=O)CC2)c(=O)[nH]c1=O | > 100 µM | > 10 µM | > 100 µM | > 100 µM | > 10 µM | > 100 µM | > 100 µM | > 100 µM | > 100 µM |  |  |  |  |  |  |  |  |  |  | 
